Laboratory results as given in patent publication US20060148858A1, “1, 2-Azole derivatives with hypoglycemic and hypolipidemic activity” (priority 2002, published 2006).

tested on: KKAY mice; test: Plasma anti-arteriosclerosis index-enhancing action in mice (Test Example 2); assay type: in vivo; settings: Mus musculus, po, 96 h, 0.005% in powdery diet, four days, percent increase of (HDL cholesterol/total cholesterol)x100, non-treatment group taken as 100%

Going from `CCOc1nn(-c2ccc(C(F)(F)F)cn2)cc1CCCOc1cccc(CC(=O)O)c1` [Example 30, [3-(3-{3-ethoxy-1-[5-(trifluoromethyl)-2-pyridyl]-1H-pyrazol-4-yl}propoxy)phenyl]acetic acid] to `CCOc1nn(-c2ccc(C(F)(F)F)cn2)cc1CCCOc1ccccc1CC(=O)O` [Example 31, (2-(3-{3-ethoxy-1-[5-(trifluoromethyl)-2-pyridyl]-1H-pyrazol-4-yl}propoxy)phenyl]acetic acid], the change in vivo at 0.005 % in diet falls from 19% to 16%.

Compared with `O=C(O)CCc1cc(OCCCc2cn(-c3ccc(C(F)(F)F)cn3)nc2C2CCCCC2)nn1-c1ccccc1` [Example 189, 3-[3-(3-{3-cyclohexyl-1-[5-(trifluoromethyl)-2-pyridyl]-1H-pyrazol-4-yl}propoxy)-1-phenyl-1H-pyrazol-5-yl]propionic acid], `Cc1cccc(CC(=O)O)c1OCCCc1cn(-c2ccc(C(F)(F)F)cn2)nc1C1CCCCC1` [Example 316, [2-(3-{3-cyclohexyl-1-[5-(trifluoromethyl)-2-pyridinyl]-1H-pyrazol-4-yl}propoxy)-3-methylphenyl]acetic acid] is lower in change in vivo at 0.005 % in diet: 20% for the first, 10% for the second.

First: CCC(CC)c1nn(-c2ccc(Cl)cn2)cc1CCCOc1c(CC(=O)O)cccc1OC [Example 223, (2-{3-[1-(5-chloro-2-pyridyl)-3-(1-ethylpropyl)-1H-pyrazol-4-yl]propoxy}-3-methoxyphenyl)acetic acid]
Second: CCC(CC)c1nn(-c2ccc(C(F)(F)F)nn2)cc1CCCOc1c(C)cccc1CC(=O)O [Example 340, [2-(3-{3-(1-ethylpropyl)-1-[6-(trifluoromethyl)pyridazin-3-yl]-1H-pyrazol-4-yl}propoxy)-3-methylphenyl]acetic acid]
The change in vivo at 0.005 % in diet of the first is lower: 12% for the first, 21% for the second.

Compared with `COc1cccc(CC(=O)O)c1OCCCc1cn(-c2ccc(C(F)(F)F)nn2)nc1C(C)C` [Example 274, [2-(3-{3-isopropyl-1-[6-(trifluoromethyl)pyridazin-3-yl]-1H-pyrazol-4-yl}propoxy)-3-methoxyphenyl]acetic acid], `COc1ccc(CC(=O)O)cc1OCCCc1cn(-c2ccc(C(F)(F)F)cn2)nc1C1CCCCC1` [Example 304, [3-(3-{3-cyclohexyl-1-[5-(trifluoromethyl)-2-pyridinyl]-1H-pyrazol-4-yl}propoxy)-4-methoxyphenyl]acetic acid] is higher in change in vivo at 0.005 % in diet: 11% for the first, 13% for the second.
